In patent US20230338543A1, “GAMMA-HYDRO[…] AND PROCESSES FOR MAKING AND USING THEM” (Zevra Therapeutics, Inc., priority 2022, published 2023):

Test: Pharmacokinetics of GHB in plasma after oral gavage of GHB delivering compounds in rats; relative oral bioavailability vs sodium oxybate
Conditions: vehicle water; for % AUC0-4 hr, relative oral bioavailability vs sodium oxybate / % Cmax, relative oral bioavailability vs sodium oxybate: mean conjugate PK parameter/mean comparator PK parameter
[1] = dose equivalent to 80 mg/kg NaGHB (extrapolated to 100 mg/kg)
[2] = dose equivalent to 80 mg/kg NaGHB, data extrapolated to 100 mg/kg
[3] = molar equivalent of 100 mg/kg NaGHB

## CCOC(=O)OCCCC(=O)O [O-(ethoxycarbonyl)-GHB]
[1]
  % AUC0-4 hr, relative oral bioavailability vs sodium oxybate: 54%
  % Cmax, relative oral bioavailability vs sodium oxybate: 51%
[2]
  AUC0-4 hr of GHB in plasma: 19.4 ng·h/mL
  Cmax of GHB in plasma: 15.0 ng/mL
Dose equivalent to 80 mg/kg NaGHB
  Tmax of GHB in plasma: 21 min

## O=C1CCCO1 [GBL]
[3]
  AUC0-4 hr of GHB in plasma: 9.04 ng·h/mL
  Cmax of GHB in plasma: 15.4 ng/mL
  Tmax of GHB in plasma: 15 min
  % AUC0-4 hr, relative oral bioavailability vs sodium oxybate: 27%
  % Cmax, relative oral bioavailability vs sodium oxybate: 70%
